According to patent US20240343666A1, “PERINAPHTHENONE COMPOUND AND USE THEREOF” (INSTITUTE OF MEDICINAL BIOTECHNOLOGY, CHINESE ACADEMY OF …, priority 2021, published 2024):
Read-outs that look alike come from different tables or passages of the source.

Assays:
[1] = target: influenza virus PA protein (UniProt P15659); format: cell-based; settings: read-out: PA remaining EC50
[2] = Cell viability assay (CCK-8); format: cell-based; settings: human; 293T-Gluc cells, CCK-8, 48 h
Description: CCK-8 (Cell Counting Kit-8) kit is a rapid and highly sensitive detection kit based on WST-8 (water-soluble tetrazolium salt, chemical name: 2-(2-methyloxy-4-nitrophenyl)-3-(4-nitrophenyl)-5-(2,4-disulfophenyl)-2H-tetrazole monosodium salt) and widely applied to cell proliferation and cytotoxicity. WST-8 is a compound similar to MTT, and can be reduced by some dehydrogenases in mitochondria to produce orange-yellow formazan in the presence of an electron coupling reagent. The more and faster the cell proliferation, the darker the color; and the greater the cytotoxicity, the lighter the color. For the same cells, there is a linear relationship between the depth of color and the number of cells. The number of living cells can be indirectly reflected by measuring the light absorption value via an enzyme-linked immunosorbent assay instrument at a wavelength of 450 nm. 293T-Gluc cells were inoculated in a 96-well plate at 2.5×10^4 cells per well, and incubated in 100 μL of DMEM culture medium containing 10% FBS. 24 h after cell plating, 1 μL of the gradiently diluted test compound was added per well (the test compound was dissolved in DMSO and diluted with DMSO). Meanwhile, a blank control (only 100 μL of DMEM culture medium was added), a positive control (1 μL Ribavirin was added), and a negative control (1 μL DMSO was added) were set, and incubated at 37° C. for 48 h. The 96-well plate was taken out, and 10 μL of CCK-8 was added to each well. […] The experiment was repeated three times.

TRIM25 = TRIM25 (Homo sapiens, UniProt Q14258); test: Biolayer interferometry (BLI) binding to TRIM25; settings: in vitro
Description: (§1) To further investigate the mechanism of degradation of PA protein by compound C1, the inventors tested the binding ability of the compound to TRIM25 protein and PA protein using biolayer interferometry (BLI). […] Meanwhile, the compounds also have the ability of binding PA in vitro.

[3] = system: influenza A virus (IAV) A/WSN/33 (H1N1); test: microbe, parasite or virus in culture; format: cell-based; settings: read-out: Anti-influenza activity EC50
PA protein [4] = target: T1, PA protein (Influenza A virus, UniProt P15659); test: Biolayer interferometry (BLI) binding to PA; settings: in vitro
Description: as §1

PA protein [5] = target: T1, PA protein; test: In vitro ubiquitination test; format: biochemical
PA protein [6] = target: T1, PA protein; format: cell-based
TRIM25 with PA protein = TRIM25 with PA protein (UniProt P15659+Q14258); test: Interaction of TRIM25 with PA in HEK293T cells (co-immunoprecipitation); format: cell-based
PA protein [7] = target: T1, PA protein; test: Ubiquitination of PA protein in HEK293T cells (immunoprecipitation, Western Blotting); format: cell-based

Sequence of TRIM25 (Q14258 whole entry, species assumed): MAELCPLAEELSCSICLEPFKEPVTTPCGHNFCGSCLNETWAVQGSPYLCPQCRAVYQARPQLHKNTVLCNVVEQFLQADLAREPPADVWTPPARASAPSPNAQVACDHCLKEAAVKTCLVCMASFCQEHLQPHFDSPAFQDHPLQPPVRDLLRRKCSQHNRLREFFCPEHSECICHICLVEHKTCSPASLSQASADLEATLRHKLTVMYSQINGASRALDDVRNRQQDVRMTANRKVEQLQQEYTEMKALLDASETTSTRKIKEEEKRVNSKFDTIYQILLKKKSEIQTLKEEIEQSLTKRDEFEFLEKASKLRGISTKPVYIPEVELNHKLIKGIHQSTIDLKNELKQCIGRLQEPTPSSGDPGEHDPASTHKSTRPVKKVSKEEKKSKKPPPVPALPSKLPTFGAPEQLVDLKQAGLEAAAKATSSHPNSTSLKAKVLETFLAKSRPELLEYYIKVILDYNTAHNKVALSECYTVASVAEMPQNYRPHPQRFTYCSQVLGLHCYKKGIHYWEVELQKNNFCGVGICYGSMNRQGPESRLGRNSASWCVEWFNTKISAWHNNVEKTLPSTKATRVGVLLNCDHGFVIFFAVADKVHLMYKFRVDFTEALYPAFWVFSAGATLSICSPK

SMILES	DC50 [1]	CC50 at 48 h [2]	Kd (TRIM25)	EC50 [3]	EC50 ([3]; Influenza A virus, 24 h)	Kd (PA protein [4])	Polyubiquitination level of PA protein in vitro (PA protein [5])	Expression level of PA protein after treatment with proteasome inhibitor MG-132 (PA protein [6])	Restoration of PA protein after treatment with lysosome inhibitor ConA (PA protein [6])	Interaction of TRIM25 with PA protein (TRIM25 with PA protein)	Polyubiquitination level of PA protein in cells (PA protein [7])
CC(C)=CCC/C(=C/CC/C(C)=C/CC/C(C)=C/C[C@]1(O)C(=O)c2c(O)cc(C)c3c(O)c(C)c(O)c(c23)C1=O)C(=O)O [Compound C12]	1070 ± 100 nM	> 100 µM	12 to 43 µM	920 ± 20 nM							
C/C(=C\C[C@]1(O)C(=O)c2c(O)cc(C)c3c(O)c(C)c(O)c(c23)C1=O)CC/C=C(\C)CCC(O)[C@@]1(C)CC[C@@H](C(C)(C)O)O1 (some centres unmarked) [Compound C9]	1040 ± 80 nM	> 100 µM	12 to 43 µM	1020 ± 50 nM							
CC(C)=CCC/C(C=O)=C\CC/C(C)=C/CC/C(C)=C/C[C@]1(O)C(=O)c2c(O)cc(C)c3c(O)c(C)c(O)c(c23)C1=O [Compound C3]	1140 ± 260 nM	> 100 µM	12 to 43 µM	1420 ± 20 nM							
C/C(=C\CC/C(C)=C/C[C@]1(O)C(=O)c2c(O)cc(C)c3c(O)c(C)c(O)c(c23)C1=O)CC/C=C1/CCC(C(C)(C)O)OC1 (some centres unmarked) [Compound C13]	710 ± 20 nM	> 100 µM	12 to 43 µM	650 ± 10 nM	450 to 2220 nM						
CC(=O)OC(C=C(C)C)C/C(C)=C/CC/C(C)=C/CC/C(C)=C/C[C@]1(O)C(=O)c2c(O)cc(C)c3c(O)c(C)c(O)c(c23)C1=O (some centres unmarked) [Compound C5]	730 ± 230 nM	> 100 µM	12 to 43 µM	570 ± 80 nM	450 to 2220 nM						
NC(=O)c1ncn([C@@H]2O[C@H](CO)[C@@H](O)[C@H]2O)n1 [Ribavirin, reference compound]		> 100 µM			27800 ± 650 nM						
C/C(=C\CC/C(C)=C/C[C@]1(O)C(=O)c2c(O)cc(C)c3c(O)c(C)c(O)c(c23)C1=O)CC/C=C(\C)CC[C@@H](O)C(C)(C)O [Compound C6]	2090 ± 520 nM	> 100 µM	12 to 43 µM	2220 ± 40 nM							
C/C(=C\CC/C(C)=C/C[C@]1(O)C(=O)c2c(O)cc(C)c3c(O)c(C)c(O)c(c23)C1=O)C/C=C/C1(C)CCC(C(C)(C)O)O1 (some centres unmarked) [Compound C14]	1020 ± 30 nM	> 100 µM	12 to 43 µM	1060 ± 90 nM							
C/C(=C\C[C@]1(O)C(=O)c2c(O)cc(C)c3c(O)c(C)c(O)c(c23)C1=O)CC/C=C(\C)CCC(O)[C@@]1(C)CC[C@H](C(C)(C)O)O1 (relative stereo) [Compound C10]	880 ± 80 nM	> 100 µM	12 to 43 µM	1220 ± 10 nM							
CC(C)=CC1C/C(=C/CC/C(C)=C/CC/C(C)=C/C[C@]2(O)C(=O)c3c(O)cc(C)c4c(O)c(C)c(O)c(c34)C2=O)CO1 (some centres unmarked) [Compound C4]	1150 ± 170 nM	> 100 µM	12 to 43 µM	1250 ± 10 nM							
CC(C)=CCC/C(=C/CC/C(C)=C/CC/C(C)=C/C[C@]1(O)C(=O)c2c(O)cc(C)c3c(O)c(C)c(O)c(c23)C1=O)CO [Compound C2]	650 ± 120 nM	> 100 µM	12 to 43 µM	580 ± 60 nM	450 to 2220 nM	58 µM					
C/C(=C\CC/C(C)=C/C[C@]1(O)C(=O)c2c(O)cc(C)c3c(O)c(C)c(O)c(c23)C1=O)CC/C=C(\CO)CC[C@@H](O)C(C)(C)O [Compound C1]	440 ± 90 nM	> 100 µM	12 to 43 µM	450 ± 40 nM	450 to 2220 nM	11 µM	can promote the polyubiquitination level of PA protein in vitro	almost completely restored	hardly affected	can promote the interaction of TRIM25 with PA protein	can promote the polyubiquitination level of PA protein
C/C(=C\CC/C(C)=C/C[C@]1(O)C(=O)c2c(O)cc(C)c3c(O)c(C)c(O)c(c23)C1=O)CC/C=C(\CCC1OC(C)(C)OC1(C)C)C(=O)O (some centres unmarked) [Compound C8]	800 ± 120 nM	> 100 µM	12 to 43 µM	550 ± 30 nM	450 to 2220 nM						
C/C(=C\CC/C(C)=C/C[C@]1(O)C(=O)c2c(O)cc(C)c3c(O)cc(O)c(c23)C1=O)CC/C=C(\CO)CC[C@@H](O)C(C)(C)O [Compound C11]	620 ± 150 nM	> 100 µM	12 to 43 µM	910 ± 80 nM							
C/C(=C\CC/C(C)=C/C[C@]1(O)C(=O)c2c(O)cc(C)c3c(O)c(C)c(O)c(c23)C1=O)CC/C=C(\CO)CCC1OC(C)(C)OC1(C)C (some centres unmarked) [Compound C7]	1050 ± 190 nM	> 100 µM	12 to 43 µM	780 ± 20 nM	450 to 2220 nM						
